Measurements taken from patent US7968097B2, “Identification of Hla-A2-presented T-cell epitopes derived from the oncofoetal antigen-immature laminin receptor protein and uses thereof” (Immatics Biotechnologies GmbH, priority 2005, dated 2011).
Entries after “also recorded” stand apart in the source; their conditions may differ.

Test system: PBMC of HLA-A*02 positive healthy donors
Assay: IFN-γ ELISPOT, healthy donors
Conditions: peripheral blood samples of healthy donors, IFN-γ ELISPOT
Description: To determine the frequency of OFA/iLR peptide-specific T cells in patients, ELISPOT-assays were performed using the Interferon-γ-ELISPOT-Kit (Becton Dickinson, Heidelberg, Germany) according to manufacturer's instructions.
Prior to analysis, T cells from patients and healthy donors had been kept in culture for seven days in the presence of Interleukin-2 (IL microgram/10^6 PBMC/milliliter).

## ALCNTDSPL (listed as Homo sapiens) [ILR2]
  CTL / spontaneous T cell responses against peptide in healthy individuals: no spontaneous T cell responses; also recorded: low numbers of CTL

## LLAARAIVAI (listed as Homo sapiens) [ILR1]
  CTL / spontaneous T cell responses against peptide in healthy individuals: no spontaneous T cell responses; also recorded: low numbers of CTL
